From ChEMBL document CHEMBL1129066, “Novel terphenyls as selective cyclooxygenase-2 inhibitors and orally active anti-inflammatory agents” (J Med Chem, 1996)
pIC50: −log10 of the molar value.

What was measured:
[1] = species on record: Rattus norvegicus; assay: animal or person; format: functional
[2] = species on record: Rattus norvegicus; assay: animal or person; format: functional; remark: listed apart in the source
[3] = target: Prostaglandin G/H synthase 1 (Homo sapiens, UniProt P23219)
[4] = species on record: Rattus norvegicus; assay: animal or person; format: functional; remark: listed apart in the source
[5] = species on record: Rattus norvegicus; assay: animal or person; format: functional; remark: listed apart in the source

Chain of Prostaglandin G/H synthase 1 (P23219 whole entry): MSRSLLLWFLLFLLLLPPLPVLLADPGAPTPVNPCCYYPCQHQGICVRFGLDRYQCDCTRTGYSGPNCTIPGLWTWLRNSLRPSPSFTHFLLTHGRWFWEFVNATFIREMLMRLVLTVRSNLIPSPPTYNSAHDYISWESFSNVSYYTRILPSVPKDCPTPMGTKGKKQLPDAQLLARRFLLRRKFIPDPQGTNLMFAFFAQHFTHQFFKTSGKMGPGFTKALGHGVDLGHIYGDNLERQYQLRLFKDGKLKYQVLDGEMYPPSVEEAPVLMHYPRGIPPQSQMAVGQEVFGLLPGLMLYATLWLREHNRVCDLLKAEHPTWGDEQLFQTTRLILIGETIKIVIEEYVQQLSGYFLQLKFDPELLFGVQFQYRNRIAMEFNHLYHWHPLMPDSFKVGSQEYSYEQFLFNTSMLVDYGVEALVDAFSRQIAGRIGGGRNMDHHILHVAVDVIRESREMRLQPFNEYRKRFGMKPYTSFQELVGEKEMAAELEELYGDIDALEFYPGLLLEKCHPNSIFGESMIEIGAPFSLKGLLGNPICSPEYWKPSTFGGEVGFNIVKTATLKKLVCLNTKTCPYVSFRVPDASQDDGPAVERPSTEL

| SMILES | pIC50 [3] | other results |
| --- | --- | --- |
| NS(=O)(=O)c1ccc(-c2ccccc2-c2ccc(F)cc2)cc1 | – | ED50 [1]: 1.5 mg/kg; ED50 [2]: > 50 mg/kg |
| CS(=O)(=O)c1ccc(-c2cc3ccccc3cc2-c2ccc(F)cc2)cc1 | < 4.00 | – |
| CS(=O)(=O)c1ccc(-c2cc(F)c(F)cc2-c2ccc3c(c2)OCCO3)cc1 | < 4.00 | – |
| CS(=O)(=O)c1ccc(-c2cc3c(cc2-c2ccc(F)cc2)OCO3)cc1 | – | inhibition in vivo at 2 mg/kg [4]: 0% |
| CS(=O)(=O)c1ccc(-c2nccnc2-c2ccc(F)cc2)cc1 | < 4.00 | – |
| NS(=O)(=O)c1ccc(-c2cc3c(cc2-c2ccc(F)cc2)OCO3)cc1 | – | inhibition in vivo at 2 mg/kg [4]: 26% |
| COc1c(Cl)cc(-c2cc(F)c(F)cc2-c2ccc(S(C)(=O)=O)cc2)cc1Cl | < 4.00 | – |
| CS(=O)(=O)c1ccc(-c2c(F)c(F)c(F)c(F)c2-c2ccc(F)cc2)cc1 | < 4.00 | – |
| NS(=O)(=O)c1ccc(-c2cc(F)c(F)cc2-c2ccc(F)c(Cl)c2)cc1 | – | ED50 [5]: 38.7 mg/kg; ED50 [1]: 0.05 mg/kg |
| CS(=O)(=O)c1ccc(-c2cc(Cl)c(Cl)cc2-c2ccc(F)cc2)cc1 | < 4.00 | – |
